Measured values reported in BindingDB's records for doi:10.7270/Q2736PBV (Broad Institute, 2009).

Molecular target: T1, Streptokinase A (Streptococcus pyogenes serotype M1, UniProt P10520)
T1 sequence (P10520 whole entry): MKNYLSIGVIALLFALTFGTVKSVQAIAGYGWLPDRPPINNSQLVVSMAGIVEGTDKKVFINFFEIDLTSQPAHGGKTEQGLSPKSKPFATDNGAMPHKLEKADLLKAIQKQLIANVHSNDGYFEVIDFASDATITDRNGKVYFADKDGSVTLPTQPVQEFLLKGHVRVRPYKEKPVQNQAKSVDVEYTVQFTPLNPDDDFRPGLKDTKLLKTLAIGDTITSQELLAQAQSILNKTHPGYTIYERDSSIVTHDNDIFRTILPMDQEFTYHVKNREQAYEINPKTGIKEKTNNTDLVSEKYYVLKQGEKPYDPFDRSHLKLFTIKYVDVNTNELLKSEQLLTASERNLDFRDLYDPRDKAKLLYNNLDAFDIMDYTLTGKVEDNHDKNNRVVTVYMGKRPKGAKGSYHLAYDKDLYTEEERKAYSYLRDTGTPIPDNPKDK
Assay: S. pyogenes streptokinase expression inhibitors, potency, dose response, plasminogen activation absorbance, OD405 (AID 1914)

Row | Compound | EC50 [µM]
1 | CCN1C(=O)C(C=NN=Cc2ccccc2)c2ccc(C3=NNC(=O)CC3)cc21 (centres undefined) [benzaldehyde {[1-ethyl-2-oxo-6-(6-oxo-1,4,5,6-tetrahydro-3-pyridazinyl)-1,2-dihydro-3H-indol-3-ylidene]methyl}hydrazone] | > 150
2 | CC(C)COC(=O)c1cccc2c1-c1ccccc1C2N=O (centres undefined) [isobutyl 9-(hydroxyimino)-9H-fluorene-4-carboxylate] | 50
3 | COC(=O)c1sc(N2C(=O)C(=O)C(C(=O)c3ccc(C)o3)C2c2ccc([N+](=O)[O-])cc2)nc1C (centres undefined) [methyl 2-[4-hydroxy-3-(5-methylfuran-2-carbonyl)-2-(4-nitrophenyl)-5-oxo-2H-pyrrol-1-yl]-4-methyl-1,3-thiazole-5-carboxylate] | > 150
4 | C[N+](C)(C)c1ccc(CN=Nc2nc(Cl)c(C#N)c(Cl)c2Cl)cc1 [trimethyl-[4-[[(3,4,6-trichloro-5-cyanopyridin-2-yl)hydrazinylidene]methyl]phenyl]azanium;iodide] | > 150
